Measured values reported in US20060281695A1, “Control of parasites in animals by N-[(phenyloxy)phenyl]-1,1,1-trifluoromethanesulfonamide and N-[(phenylsulfanyl)phenyl]-1,1,1-trifluoromethanesulfonamide derivatives” (priority 2005, published 2006).

System: Haemonchus contortus
Assay: Haemonchus contortus larvacidal (larval development) assay, LD99
Type: in vitro
Details: not given
Method: The LD99 value is the dose, expressed as […], that was required to kill 99% of a sample of Haemonchus contortus.
a) Haemonchus Contortus Larvacidal Assay:
The effect of compounds on larval development was determined in the assay described by Gill et al. [International Journal of Parasitology 25:463-470 (1995)]. Briefly, in this assay, nematode eggs are applied to the surface of an agar matrix containing the test compound and then allowed to develop through to the L3, infective stage (6 days). The wells for each dilution of every compound (from highest to lowest concentration) are inspected to determine the well number corresponding to the lowest concentration at which development is inhibited in 99% of the nematode larvae present (LD99). Because well numbers correspond to a two-fold serial dilution of each compound, a titre (dilution factor) is generated as 2^n−1, where n is the well number. By dividing the highest concentration tested by the titre an LD99 value can be obtained, representing the concentration required to inhibit development in 99% of the nematode larvae present. The compounds supplied as solid and viscous liquids are dissolved in DMSO. Twelve serial one-half dilutions in DMSO solution are prepared from the stock solution, each of which is then diluted 1/5 with water. Aliquots (10 μl) of each dilution are transferred to the bioassay plates to give a final concentration range of 0.024 to 50 μg/ml.
(§1) In Table 7, provided below, are listed the Haemonchus contortus LD99 values (measured in micrograms/mL), the Ctenocephalides felis rapid screening values (measured in % mortality), the Ctenocephalides felis LC50 values (measured in micrograms/cm^2) and the Rhipicephalus sanguineus rapid screening values (measured in % mortality) for selected compounds in accordance with the present invention.

Going from `CC(C)(C)c1ccc(Oc2cc(Cl)ccc2NS(=O)(=O)C(F)(F)F)cc1` [Compound 3] to `O=S(=O)(Nc1cc(C(F)(F)F)ccc1Oc1ccc(Cl)cc1Cl)C(F)(F)F` [Compound 10], the “Haemonchus contortus LD99” value falls from 7.0 µg/mL to 1.5 µg/mL (4.7-fold).

With `O=S(=O)(Nc1cccc(Cl)c1Oc1ccc(Cl)cc1Cl)C(F)(F)F` [Compound 11] the “Haemonchus contortus LD99” value was 2.5 µg/mL.

System: cat flea (Ctenocephalides felis)
Assay: Ctenocephalides felis adulticide assay: single dose screen on treated glass surface (% mortality at 1.26 μg/cm^2, 24 hours)
Type: in vivo
Details: Ctenocephalides felis, 24 h, read-out: Ctenocephalides felis Mortality (%) 24 h
Method: The LC50 value is the concentration, expressed as μg/cm^2, that was required to kill 50% of the sample of cat fleas on contact with the tested compound. Certain tests are also reported as the percent of a sample of cat fleas that were killed at a concentration of 1.26 μg/cm^2 (“% mortality”), for the compounds tested in this way.
b) Ctenocephalides felis Adulticide Assay: C.felis single dose screen
Mortality of fleas is the primary endpoint in the assay. […] The concentration chosen (1.26 μg/cm^2) is higher than that known to kill 90% of cat fleas (LC90) using the reference compound, permethrin.
The test species employed was the cat flea (Ctenocephalides felis). The strain used was obtained from external suppliers as pupae and held in the laboratory under testing conditions until the adults had emerged. Fifteen (15) fleas were used in a minimum of four replicates against a single concentration level (approximately 60 fleas). The insects were selected to be in the adult life stage, aged between 3 and 7 days post emergence.
The compounds to be tested were supplied as solids and were prepared in acetone as described below prior to testing. Samples were stored in a refrigerator (5±1° C.) unless otherwise specified.
During the mortality testing, the temperature was maintained at 25±1° C. Humidity was maintained at 75±5%. The base (area=159 mm^2) of a 100 mL glass Erlenmeyer (conical) flask provided the treatment surface. Flasks were pre-treated with Coatasil™ glass treatment to maximise bio-availability of test compounds by preventing them from binding to glass the surface. The base of the 100 mL Erlenmeyer flask was treated with 0.5 mL of test sample in acetone and gently swirled. This volume was sufficient to cover the base of the flask. Flasks were left to dry for 24 hours before flea exposure.
Adult cat fleas were placed into a sorting chamber, which allowed fleas to jump into the Erlenmeyer flasks. Fifteen (15) adult cat fleas were collected in each flask. The top of the flasks were then covered in Parafilm™ and small holes were made to allow gas exchange. A 0.5 mL volume of acetone as a solvent control was applied to the base of an Erlenmeyer flask and the testing proceeded in the same manner described above. […] Pooled 24 hour mortality data were converted to percentages and are summarized by Table 4, below.
as §1

Going from `CCOCN(c1cccc(Oc2ccc(Cl)cc2Cl)c1)S(=O)(=O)C(F)(F)F` [Compound m7, N-Ethoxymethyl-N-[3-(2,4-dichlorophenoxy)phenyl]-1,1,1-trifluoromethanesulfonamide] to `O=S(=O)(N(Cc1ccccc1)c1ccc(Cl)cc1Oc1ccc(Cl)cc1Cl)C(F)(F)F` [Compound 92, N-benzyl-N-[4-chloro-2-(2,4-dichlorophenoxy)phenyl]-1,1,1-trifluoromethanesulfonamide], the mortality at 1.26 µg/cm2, 1.26 µg/cm2 rises from 5% to 57%.

Compared with `O=S(=O)(Nc1ccc(Cl)cc1Oc1ccccc1-c1ccccc1)C(F)(F)F` [Compound 74, N-[2-(Biphenyl-2-yloxy)-4-chlorophenyl]-1,1,1-trifluoromethanesulfonamide], `O=S(=O)(Nc1ccc(Cl)cc1Nc1ccc(Cl)cc1)C(F)(F)F` [Compound 91, N-[4-Chloro-2-(4-chlorophenylamino)-phenyl]-1,1,1-trifluoromethanesulphonamide] is lower in mortality at 1.26 µg/cm2, 1.26 µg/cm2: 81% for the first, 13% for the second.

For `O=S(=O)(Nc1ccc(Oc2ccc(Cl)cc2Cl)c(Cl)c1)C(F)(F)F` [Compound p7, N-[3-Chloro-4-(2,4-dichlorophenoxy)phenyl]-1,1,1-trifluoromethanesulfonamide], the mortality at 1.26 µg/cm2, 1.26 µg/cm2 was 22%.

Same assay, conditions: in vivo

First: O=S(=O)(Nc1cc(C(F)(F)F)ccc1Sc1ccccc1Cl)C(F)(F)F [Compound 64]
Second: O=S(=O)(Nc1cc(C(F)(F)F)ccc1Sc1ccccc1F)C(F)(F)F [Compound 66]
The “Ctenocephalides felis Mortality (%) 24 h” value of the first is lower: 14% for the first, 20% for the second.

First: CC(C)(C)c1ccc(Oc2cc(Cl)ccc2NS(=O)(=O)C(F)(F)F)cc1 [Compound 3]
Second: COc1ccc(Oc2cc(Cl)ccc2NS(=O)(=O)C(F)(F)F)cc1 [Compound 49]
The “Ctenocephalides felis Mortality (%) 24 h” value of the first is higher: 58% for the first, 24% for the second.

Going from `COCN(c1ccc(Cl)cc1Oc1ccccc1F)S(=O)(=O)C(F)(F)F` [Compound 79] to `CCOCN(c1ccc(Cl)cc1Oc1ccccc1F)S(=O)(=O)C(F)(F)F` [Compound 80], the “Ctenocephalides felis Mortality (%) 24 h” value falls from 60% to 9%.

Compared with `N#Cc1cccc(Oc2cc(Cl)ccc2NS(=O)(=O)C(F)(F)F)c1` [Compound 50], `N#Cc1ccc(Oc2cc(Cl)ccc2NS(=O)(=O)C(F)(F)F)cc1` [Compound 56] is lower in “Ctenocephalides felis Mortality (%) 24 h” value: 14% for the first, 6% for the second.

First: O=S(=O)(Nc1cccc(Cl)c1Oc1ccc(Cl)cc1Cl)C(F)(F)F [Compound 11]
Second: O=S(=O)(Nc1cccc(Oc2ccc(Cl)cc2Cl)c1)C(F)(F)F [Compound m6, N-[3-(2,4-dichlorophenoxy)phenyl]-1,1,1-trifuoromethanesulfonamide]
The “Ctenocephalides felis Mortality (%) 24 h” value of the first is lower: 20% for the first, 34% for the second.

First: O=S(=O)(Nc1cc(C(F)(F)F)ccc1Oc1ccc(Cl)cc1Cl)C(F)(F)F [Compound 10]
Second: O=S(=O)(Nc1ccc(Oc2ccc(Cl)cc2Cl)c(C(F)(F)F)c1)C(F)(F)F [p9]
The “Ctenocephalides felis Mortality (%) 24 h” value of the first is lower: 38% for the first, 44% for the second.

First: CN(c1cccc(Oc2ccccc2)c1)S(=O)(=O)C(F)(F)F [m2]
Second: CN(c1ccc(Oc2ccccc2)cc1)S(=O)(=O)C(F)(F)F [p2]
The “Ctenocephalides felis Mortality (%) 24 h” value of the first is higher: 88% for the first, 64% for the second.

Going from `COc1cccc(Oc2cc(Cl)ccc2NS(=O)(=O)C(F)(F)F)c1` [Compound 58] to `O=S(=O)(Nc1ccc(Cl)cc1Oc1ccccc1)C(F)(F)F` [Compound 40], the “Ctenocephalides felis Mortality (%) 24 h” value falls from 87% to 39%.

Going from `O=S(=O)(Nc1ccc(Oc2ccc(Cl)cc2Cl)cc1C(F)(F)F)C(F)(F)F` [p6] to `N#Cc1ccc(NS(=O)(=O)C(F)(F)F)c(Oc2ccc(Cl)cc2Cl)c1` [Compound 52], the “Ctenocephalides felis Mortality (%) 24 h” value falls from 28% to 23%.

Compared with `CC(C)(C)C(=O)OCN(c1ccc(Cl)cc1Oc1ccccc1F)S(=O)(=O)C(F)(F)F` [Compound 88], `CCCC(=O)OCN(c1ccc(Cl)cc1Oc1ccccc1F)S(=O)(=O)C(F)(F)F` [Compound 89] is lower in “Ctenocephalides felis Mortality (%) 24 h” value: 73% for the first, 6% for the second.

Going from `COCN(c1ccc(Oc2ccccc2)cc1)S(=O)(=O)C(F)(F)F` [p4] to `CCOCN(c1ccc(Oc2ccccc2)cc1)S(=O)(=O)C(F)(F)F` [p3], the “Ctenocephalides felis Mortality (%) 24 h” value rises from 49% to 72%.

First: CC(C)(C)C(=O)OCN(c1ccc(Oc2ccccc2)cc1)S(=O)(=O)C(F)(F)F [p5]
Second: CC(C)(C)C(=O)OCN(c1cccc(Oc2ccccc2)c1)S(=O)(=O)C(F)(F)F [m5]
The “Ctenocephalides felis Mortality (%) 24 h” value of the first is lower: 54% for the first, 72% for the second.

First: O=S(=O)(Nc1ccc(Oc2ccc(Cl)cc2Cl)c(F)c1)C(F)(F)F [p8]
Second: O=S(=O)(Nc1ccc(Cl)cc1Oc1cc(Cl)ccc1Cl)C(F)(F)F [Compound 69]
The “Ctenocephalides felis Mortality (%) 24 h” value of the first is lower: 4% for the first, 58% for the second.

Compared with `N#Cc1ccc(NS(=O)(=O)C(F)(F)F)c(Oc2ccc(Cl)cc2)c1` [Compound 51], `N#Cc1ccc(NS(=O)(=O)C(F)(F)F)c(Oc2ccc(F)c(F)c2)c1` [Compound 57] is lower in “Ctenocephalides felis Mortality (%) 24 h” value: 10% for the first, 2% for the second.

Compared with `O=S(=O)(Nc1ccc(Cl)cc1[S+]([O-])c1ccc(Cl)cc1)C(F)(F)F` (stereo not drawn) [Compound 23, N-[4-chloro-2-(4-(chlorophenyl)sulfinyl)phenyl]-1,1,1-trifluoromethanesulfonamide], `O=S(=O)(Nc1ccc(Cl)cc1Sc1ccccc1Cl)C(F)(F)F` [Compound 62] is higher in “Ctenocephalides felis Mortality (%) 24 h” value: 3% for the first, 25% for the second.

Compared with `O=S(=O)(Nc1cc(C(F)(F)F)ccc1Sc1ccc(Br)cc1)C(F)(F)F` [Compound 67], `O=S(=O)(Nc1cc(C(F)(F)F)ccc1Sc1ccc(F)cc1)C(F)(F)F` [Compound 65] is higher in “Ctenocephalides felis Mortality (%) 24 h” value: 5% for the first, 21% for the second.

First: CCN(c1ccc(Cl)cc1Oc1ccccc1F)S(=O)(=O)C(F)(F)F [Compound 78]
Second: CN(c1ccc(Cl)cc1Oc1ccccc1F)S(=O)(=O)C(F)(F)F [Compound 77]
The “Ctenocephalides felis Mortality (%) 24 h” value of the first is higher: 80% for the first, 20% for the second.

Compared with `Cc1ccccc1Oc1cc(C#N)ccc1NS(=O)(=O)C(F)(F)F` [Compound 54], `N#Cc1ccc(NS(=O)(=O)C(F)(F)F)c(Oc2ccccc2F)c1` [Compound 53] is higher in “Ctenocephalides felis Mortality (%) 24 h” value: 5% for the first, 9% for the second.

First: CC(C)(C)c1ccccc1Oc1cc(Cl)ccc1NS(=O)(=O)C(F)(F)F [Compound 42]
Second: CC(C)c1ccccc1Oc1cc(Cl)ccc1NS(=O)(=O)C(F)(F)F [Compound 39]
The “Ctenocephalides felis Mortality (%) 24 h” value of the first is higher: 88% for the first, 75% for the second.

First: O=S(=O)(Nc1cc(C(F)(F)F)ccc1Sc1ccccc1)C(F)(F)F [Compound 63]
Second: N#Cc1ccc(NS(=O)(=O)C(F)(F)F)c(Oc2cccc(C(F)(F)F)c2)c1 [Compound 60]
The “Ctenocephalides felis Mortality (%) 24 h” value of the first is higher: 10% for the first, 5% for the second.

Going from `CC(C)N(c1ccc(Cl)cc1Oc1ccc(Cl)cc1Cl)S(=O)(=O)C(F)(F)F` [Compound 86] to `CCN(c1ccc(Cl)cc1Oc1ccc(Cl)cc1Cl)S(=O)(=O)C(F)(F)F` [Compound 76], the “Ctenocephalides felis Mortality (%) 24 h” value falls from 66% to 3%.

First: O=S(=O)(N(Cc1ccccc1)c1ccc(Cl)cc1Oc1ccccc1F)C(F)(F)F [Compound 81]
Second: CC(C)N(c1ccc(Cl)cc1Oc1ccccc1F)S(=O)(=O)C(F)(F)F [Compound 87]
The “Ctenocephalides felis Mortality (%) 24 h” value of the first is lower: 1% for the first, 24% for the second.

Compared with `O=S(=O)(Nc1ccc(Cl)cc1Oc1ccc(Oc2ccccc2)cc1)C(F)(F)F` [Compound 47], `O=S(=O)(Nc1ccc(Oc2ccccc2)cc1)C(F)(F)F` [p1] is higher in “Ctenocephalides felis Mortality (%) 24 h” value: 36% for the first, 84% for the second.
